According to PubChem BioAssay AID1259375 (The Scripps Research Institute Molecular Screening Center, 2018):
The source made the active and inactive calls. No rule for the calls is given here.

biological target: Microphthalmia-associated transcription factor (Homo sapiens) (UniProt O75030); assay: MITF inhibitors by FRET titration, dose response, biochemical, high throughput (AID 1259375); conditions: FRET biochemical assay, MITF inhibition;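 also: FRET between CFP-tagged and YFP-tagged MITF protein partners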
Sequence (O75030 whole entry, looked up): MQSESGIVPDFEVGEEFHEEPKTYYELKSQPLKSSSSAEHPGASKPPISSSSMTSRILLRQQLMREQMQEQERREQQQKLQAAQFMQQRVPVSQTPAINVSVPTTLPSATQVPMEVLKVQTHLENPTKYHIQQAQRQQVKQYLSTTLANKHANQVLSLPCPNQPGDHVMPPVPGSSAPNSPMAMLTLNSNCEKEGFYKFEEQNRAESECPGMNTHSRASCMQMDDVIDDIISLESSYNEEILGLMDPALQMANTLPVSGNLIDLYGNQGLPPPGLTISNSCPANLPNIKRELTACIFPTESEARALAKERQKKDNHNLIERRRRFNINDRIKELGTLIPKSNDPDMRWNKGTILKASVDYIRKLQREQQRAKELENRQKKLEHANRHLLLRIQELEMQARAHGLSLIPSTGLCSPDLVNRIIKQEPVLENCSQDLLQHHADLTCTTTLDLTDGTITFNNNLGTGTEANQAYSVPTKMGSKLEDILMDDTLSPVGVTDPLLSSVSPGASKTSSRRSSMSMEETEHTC

Row | Structure (SMILES) | IC50
1 | CCOC(=O)c1cc(N2C(=O)C3C4C=CC(C4)C3C2=O)ccc1Cl (stereo not drawn) | > 6.48 µM (inactive)
2 | O=C(NC1CCCCC1)N1CCN2C(=O)[C@H]3CCCN3C(=O)[C@H]2C1 | > 6.48 µM (inactive)
3 | NC(=O)c1ccc(-c2cccs2)s1 | > 7.32 µM (inactive)
4 | C=CCNC(=O)COC(=O)c1cc(-c2ccco2)nc2ccccc12 | > 6.94 µM (inactive)
5 | O=P(O)(O)C(Sc1ccc(Cl)cc1)P(=O)(O)O | > 6.48 µM (inactive)
6 | Cn1cc(-c2nc(Nc3ccc(-n4cnc(N5CCOCC5)n4)cc3)ncc2Br)cn1 | > 6.48 µM (inactive)
7 | O=C(O)c1cc([N+](=O)[O-])cc2c1-c1c(cc([N+](=O)[O-])cc1[N+](=O)[O-])/C2=C/c1ccco1 | 1.77 µM
8 | O=C(Nc1cc(S(=O)(=O)O)cc2cc(S(=O)(=O)O)cc(O)c12)c1ccccc1 | > 6.48 µM (inactive)
9 | COc1ccc2c(c1)CC(C(=O)Nc1ccc(-c3cn[nH]c3)cc1OCC(N)=O)CO2 (stereo not drawn) | > 6.48 µM (inactive)
10 | CC(C)C[C@H]1C(=O)N2CCN(C(=O)NC3CCCCC3)C[C@@H]2C(=O)N1C | > 6.48 µM (inactive)
11 | CC(C)(C)c1ccc(OCCn2cncn2)c(Cl)c1 | > 6.48 µM (inactive)
12 | O=C(NCCN1CCOCC1)c1cccc(CN(C(=O)c2nc3ccc(-c4cn[nH]c4)cc3s2)C2CC2)c1 | > 6.48 µM (inactive)
13 | O=C(O)c1ccc(O)c(C=Nc2ccc(N=Cc3cc(C(=O)O)ccc3O)cc2)c1 | > 6.48 µM (inactive)
14 | O=C(O)C1CC=CCC1C(=O)Nc1nncs1 (stereo not drawn) | > 6.48 µM (inactive)
15 | O=C(NCCO)c1cccc(-c2cccs2)c1 | > 8.06 µM (inactive)
16 | Oc1ccc2c(c1)C1CCCC1(N1CCOCC1)O2 (stereo not drawn) | > 6.48 µM (inactive)
17 | O=C(c1ccncc1)N1C2C=CC(C2)C1(C(F)(F)F)C(F)(F)F (stereo not drawn) | > 6.48 µM (inactive)
18 | COc1cc(C(=O)N2CCN(Cc3ccccc3C)CC2)cc(OC)c1OC | > 5.62 µM (inactive)
19 | C[C@H](O)[C@H]1NC(=O)[C@H]2CN(C(=O)NCc3ccccc3)CCN2C1=O | > 6.48 µM (inactive)
20 | CN(C)[C@@H]1C(=O)C(C(=O)NCN2CCCC2)=C(O)[C@@]2(O)C(=O)C3=C(O)c4c(O)cccc4[C@@](C)(O)C3CC12 (stereo partly drawn) | > 6.48 µM (inactive)
21 | CCOc1ccc(CN2CCN(Cc3cccnc3)CC2)cc1 | > 5.78 µM (inactive)
22 | O=C(NCc1cccnc1)c1ccnc(-c2cccs2)c1 | > 6.93 µM (inactive)
23 | O=C(O)COc1ccc(-n2cccc2)cc1 | > 6.48 µM (inactive)
24 | O=C(COC(=O)/C=C/c1ccco1)COC(=O)/C=C/c1ccco1 | > 7.07 µM (inactive)

Row | Structure (SMILES) | IC50
25 | CCOC(=O)N1CCC(NC(=O)CCc2nc(C3=CCN(C)CC3)no2)CC1 | > 6.48 µM (inactive)
26 | CCN1CCc2c(sc(NC(=S)NC(=O)/C=C/c3ccco3)c2C(N)=O)C1 | > 6.48 µM (inactive)
27 | CC(C)C[C@@H]1NC(=O)[C@H]2CN(C(=O)NC3CCCCC3)CCN2C1=O | > 6.48 µM (inactive)
28 | O=C1N[C@@H](CC2CCCCC2)C(=O)N2CCN(C(=O)Nc3ccccc3)C[C@H]12 | > 6.48 µM (inactive)
29 | CCc1ccc(CN2CCN(Cc3cc(OC)c(O)c(OC)c3)CC2)cc1 | > 5.79 µM (inactive)
30 | CCN(CC)c1ccc(C(c2c(C)[nH][nH]c2=O)c2c(C)[nH][nH]c2=O)cc1 | 2.94 µM
31 | Cc1cccc(CN2CCN(C3CCC(C)CC3)CC2)c1 (stereo not drawn) | > 5.54 µM (inactive)
32 | O=c1[nH]c(-c2ccco2)nc2sc3c(c12)CCCC3 | > 9.74 µM (inactive)
33 | CC(=O)NC1=NC(=O)/C(=C\c2ccc(Br)o2)S1 | > 6.48 µM (inactive)
34 | COc1ccc(C)cc1NC(=O)C(NCC(O)c1ccccc1)c1ccccc1 (stereo not drawn) | > 7.02 µM (inactive)
35 | Cc1cc(C(=O)O)ccc1-c1ccc(/C=C2/NC(=O)NC2=O)o1 | > 6.48 µM (inactive)
36 | COc1ccc2c(c1)CC(c1nc(Nc3ccc4cnccc4c3)c3ccccc3n1)CO2 (stereo not drawn) | > 6.48 µM (inactive)
37 | O=C1NC(=S)N/C1=C\c1ccc([N+](=O)[O-])o1 | > 7.74 µM (inactive)
38 | COc1cc(-c2ccnc(N)n2)ccc1NC(=O)[C@H]1COc2ccccc2O1 | > 6.48 µM (inactive)
39 | O=C(/C=C/c1ccco1)NCc1cccc(CNC(=O)/C=C/c2ccco2)c1 | > 6.48 µM (inactive)
40 | COc1cc(C)c2c(c1C=O)Oc1c(c(C)c(O)c3c1C(O)OC3=O)OC2=O (stereo not drawn) | 1.66 µM
41 | CCC(C)NCCOc1cccc(Br)c1 (stereo not drawn) | > 6.48 µM (inactive)
42 | COc1cc(CN2CCN(C3CCCC3)CC2)cc(OC)c1OC | > 6.48 µM (inactive)
43 | Cc1cc2ncn(Cc3noc(-c4ccco4)n3)c2cc1C | > 6.48 µM (inactive)
44 | O=C1N[C@@H](CC2CCCCC2)C(=O)N2CCN(C(=O)NCc3ccccc3)C[C@H]12 | > 6.48 µM (inactive)
45 | CCN(C(=O)C1COc2ccccc2O1)C12CC3CC(CC(C3)C1)C2 (stereo not drawn) | > 6.83 µM (inactive)
46 | O=C1N[C@@H](COCc2ccccc2)C(=O)N2CCN(C(=O)NCc3ccccc3)C[C@H]12 | > 6.48 µM (inactive)
47 | CC(C)N(C(=O)COC(=O)c1cc(-c2ccco2)nc2ccccc12)C(C)C | > 6.82 µM (inactive)
48 | O=c1c(O)c(-c2ccc(O)cc2O)oc2cc(O)cc(O)c12 | > 6.48 µM (inactive)

Row | Structure (SMILES) | IC50
49 | COc1cccc(COC(=O)Nc2ccc(-c3cn[nH]c3)cc2N(C)CCN(C)C)c1 | > 6.48 µM (inactive)
50 | O=C(COc1ccccc1C(=O)OC1CCCC1=O)Nc1cccc(C(F)(F)F)c1 (stereo not drawn) | > 6.77 µM (inactive)
51 | CN1C(=O)[C@H]2CN(C(=O)NCc3ccccc3)CCN2C(=O)[C@@H]1Cc1ccccc1 | > 6.48 µM (inactive)
52 | C=C1c2cccc(O)c2C(O)=C2C(=O)[C@]3(O)C(O)=C(C(N)=O)C(=O)[C@@H](N(C)C)[C@@H]3[C@@H](O)[C@H]12 | > 6.48 µM (inactive)
53 | Cc1c(NC(=O)C(C)OC(=O)c2cc3c(s2)CCC3)c(=O)n(-c2ccccc2)n1C (stereo not drawn) | > 6.7 µM (inactive)
54 | O=C1S/C(=C\c2ccco2)C(=O)N1c1ccccc1Cl | inactive
55 | CCOC(=O)C1C2NC(=S)N(c3ccc(CC)cc3)C1(C)Oc1c(OCC)cccc12 (stereo not drawn) | > 5.53 µM (inactive)
56 | C[C@H]1C(=O)N2CCN(C(=O)NC3CCCCC3)C[C@@H]2C(=O)N1C | > 6.48 µM (inactive)
57 | Brc1c(OCCN2CCNCC2)ccc2ccccc12 | > 6.48 µM (inactive)
58 | C=CCc1cc(C)ccc1OCCCCn1ccnc1 | > 6.48 µM (inactive)
59 | O=S(=O)(c1ccccc1C(F)(F)F)N1CCC(c2nc3ccccc3[nH]2)CC1 | > 6.48 µM (inactive)
60 | NC(=O)/C(=C\c1cccc([N+](=O)[O-])c1)NC(=O)c1ccc(Br)cc1 | > 6.48 µM (inactive)
61 | CN(C)CCNc1nc(C2COc3ccccc3O2)nc2ccc(-c3cn[nH]c3)cc12 (stereo not drawn) | > 6.48 µM (inactive)
62 | O=C(/C=C/c1ccco1)ON1C(=O)c2ccccc2C1=O | > 6.48 µM (inactive)
63 | O=C(O)c1cc(S(=O)(=O)Nc2ccc3cn[nH]c3c2)ccc1O | > 7 µM (inactive)
64 | Cc1cncc2c(S(=O)(=O)N3CC[C@@H](NC(=O)C(O)c4ccc(F)cc4F)C3)cccc12 (stereo partly drawn) | > 6.48 µM (inactive)
65 | Cc1ccc(S(=O)(=O)C(CNC(=O)c2ccco2)c2cccs2)cc1 (stereo not drawn) | > 6.56 µM (inactive)
66 | Cc1ccc(N2C(=O)c3ccccc3NC2c2cccc([N+](=O)[O-])c2)cc1 (stereo not drawn) | > 5.15 µM (inactive)
67 | Cc1ccc(O)c(NC(=S)NC(=O)/C=C/c2ccco2)c1 | > 6.48 µM (inactive)
68 | CC(C)NC(=O)/C(C#N)=C/c1ccc(-c2ccc([N+](=O)[O-])cc2Br)o1 | > 7.06 µM (inactive)
69 | C/C(N)=C(/C#N)C(=O)COC(=O)c1c2c(nc3ccccc13)/C(=C/c1ccco1)CC2 | > 6.27 µM (inactive)
70 | CN=C1SC(CC(=O)Nc2cccc(C(=O)O)c2)C(=O)N1C (stereo not drawn) | > 6.48 µM (inactive)
71 | O=C(NCc1cccnc1)c1cccc(-c2cccs2)c1 | > 6.64 µM (inactive)
72 | N#Cc1c(-c2ccco2)cc(-c2ccco2)nc1N | > 6.48 µM (inactive)

Row | Structure (SMILES) | IC50
73 | COc1cc2cc3c(N)c(C(=O)Nc4sc(C)c(C)c4C#N)sc3nc2cc1OC | > 6.48 µM (inactive)
74 | Cc1oc(C(=O)O)cc1CSCCSCc1cc(C(=O)O)oc1C | > 6.48 µM (inactive)
75 | C[C@H]1C(=O)N2CCN(C(=O)NCc3ccccc3)C[C@@H]2C(=O)N1C | > 6.48 µM (inactive)
76 | CC(C)C[C@@H]1NC(=O)[C@H]2CN(C(=O)NCc3ccccc3)CCN2C1=O | > 6.48 µM (inactive)
77 | N#C/C(=C(/O)COC(=O)c1cc2c(s1)CCC2)c1nc2ccccc2[nH]1 | > 7.1 µM (inactive)
78 | O=C(CCCCC1SCC2NC(=O)NC21)NC1(c2ccc3c(c2)OCO3)CCCC1 (stereo not drawn) | > 6.48 µM (inactive)
79 | Cc1ccc(-c2nnc3s/c(=C\c4ccco4)c(=O)n23)cc1 | > 6.48 µM (inactive)
80 | O=P(O)(O)C(O)(CCNC(=S)Nc1ccccc1)P(=O)(O)O | > 6.83 µM (inactive)
81 | O=C(OC1CCCC1=O)c1ccc(N2CCCC2=O)cc1 (stereo not drawn) | > 7.22 µM (inactive)
82 | COC(=O)CN(CCN(CC(=O)O)CC(=O)OC)CC(=O)O | > 5.37 µM (inactive)
83 | CC(=O)Nc1ccc(N2C(=O)c3ccccc3C2(O)Cc2ccccc2)cc1 (stereo not drawn) | > 6.48 µM (inactive)
84 | CN(C)c1cc(NC(=O)CNC(C)(C)C)c(O)c2c1C[C@H]1C[C@H]3[C@@H](N(C)C)C(=O)C(C(N)=O)=C(O)[C@@]3(O)C(=O)C1=C2O | > 6.48 µM (inactive)
85 | O=C1CCCC2=C1C(c1ccc([N+](=O)[O-])o1)C1=C(CCCC1=O)O2 | > 7.09 µM (inactive)
86 | O=C(NCc1ccccc1)N1CCN2C(=O)[C@@H]3CSCN3C(=O)[C@H]2C1 | > 6.48 µM (inactive)
87 | Cc1cc(C)nc(NS(=O)(=O)c2ccc(N3C(=O)C=CC3=O)cc2)n1 | > 6.48 µM (inactive)
88 | O=C(/C=C/c1ccco1)NC(=S)Nc1cccc(C(=O)O)c1 | > 6.48 µM (inactive)
89 | O=C(O)c1ccccc1-c1ccc(/C=C/[N+](=O)[O-])o1 | > 6.48 µM (inactive)
90 | c1ccc(COc2ccc(OCCCCn3ccnc3)cc2)cc1 | > 6.48 µM (inactive)
91 | CN1C(=O)[C@H]2CN(C(=O)NC3CCCCC3)CCN2C(=O)[C@@H]1Cc1ccccc1 | > 6.48 µM (inactive)
92 | Nc1ccc(NCCO)c(N)c1 | > 5.9 µM (inactive)
93 | O=C(c1ccc([N+](=O)[O-])cc1)N1CCN(Cc2cccc3ccccc23)CC1 | > 5.48 µM (inactive)
